PMC6199744, “Development of Chemical Proteomics for the Folateome and Analysis of the Kinetoplastid Folateome” (ACS Infectious Diseases, 2018)
Values joined by “and” are separate entries in the source; they are usually repeats but may differ in a detail not shown here. Equal values may be shown once. Read-outs that look alike come from different tables or passages of the source.

Test system: T. brucei lysate proteins
Type: binding, Trypanosoma brucei

## Nc1nc2c(c(=O)[nH]1)N(C=O)C(CNc1ccc(C(=O)N[C@@H](CCC(=O)O)C(=O)O)cc1)CN2 (stereo partly drawn) [LEU, leucovorin]
  fold change vs vehicle control: 0.89 and 1.1 and 1.13
Protein CZB00000046.1 HA-UBIQUITIN, vehicle control = 1
  fold change: 0.69
Protein CZT00008884.1 […]-ASSOCIATED GENE 3 (ESAG3) PROTEIN, vehicle control = 1
  fold change: 1.21
Protein CZT00018965.1 RETRO[…] (RHS) PROTEIN 1, vehicle control = 1
  fold change: 1.3
Protein TB09.160.3270 ATP-DEPENDENT DEAD BOX HELICASE, PUTATIVE, vehicle control = 1
  fold change vs vehicle control: 1.53
Protein TB09.160.3710 PRO[…] NUCLEAR ANTIGEN (PCNA), PUTATIVE, vehicle control = 1
  fold change: 1
Protein TB09.160.4200 60S ACIDIC RIBOSOMAL PROTEIN, PUTATIVE, vehicle control = 1
  fold change vs vehicle control: 1.11
Protein TB09.160.4250 TR[…], vehicle control = 1
  fold change vs vehicle control: 1.26
Protein TB09.211.3540 GLYCEROL KINASE, GLYCOSOMAL, vehicle control = 1
  fold change: 1.39
Protein TB11.01.0450 PROTEIN PHOSPHATASE 1, PUTATIVE, vehicle control = 1
  fold change: 0.92
Protein TB11.01.1690 HY[…], CONSERVED, vehicle control = 1
  fold change: 1.4
Protein TB11.01.2560 40S RIBOSOMAL PROTEIN SA, PUTATIVE, vehicle control = 1
  fold change vs vehicle control: 0.87
Protein TB11.01.3560 VACUOLAR ATP SYNTHASE SUBUNIT B, PUTATIVE, vehicle control = 1
  fold change: 0.9
Protein TB11.01.4370 HY[…], CONSERVED, vehicle control = 1
  fold change vs vehicle control: 1.1
Protein TB11.01.5350 PROFILIN, vehicle control = 1
  fold change: 1.27
Protein TB11.01.8740 PROTEIN PHOSPHATASE 4, PUTATIVE, vehicle control = 1
  fold change: 0.73
Protein TB11.02.1135 DYNEIN LIGHT CHAIN, PUTATIVE, vehicle control = 1
  fold change vs vehicle control: 1.39
Protein TB11.02.2040 HY[…], CONSERVED (ALBA-Domain Protein), vehicle control = 1
  fold change vs vehicle control: 1.42
Protein TB11.02.2510 GUANINE NUCLEOTIDE-BINDING BETA SUBUNIT-LIKE PROTEIN, vehicle control = 1
  fold change vs vehicle control: 0.98
Protein TB11.02.2960 MIT[…] PROTEIN, PUTATIVE, vehicle control = 1
  fold change: 0.69
Protein TB11.02.4170 40S RIBOSOMAL PROTEIN S5, PUTATIVE, vehicle control = 1
  fold change vs vehicle control: 1.44
Protein TB11.03.0250 C[…], vehicle control = 1
  fold change vs vehicle control: 1.92
Protein TB11.03.0530 HY[…], CONSERVED (hy[…] SCD6.10), vehicle control = 1
  fold change vs vehicle control: 0.99
Protein TB427TMP.01.0480 HY[…], CONSERVED, vehicle control = 1
  fold change vs vehicle control: 1.07
Protein TB427TMP.01.1470 60S RIBOSOMAL PROTEIN L10A, PUTATIVE, vehicle control = 1
  fold change: 0.96
Protein TB427TMP.01.1680 POLYUBIQUITIN, PUTATIVE, vehicle control = 1
  fold change vs vehicle control: 1.44
Protein TB427TMP.01.2460 HY[…], CONSERVED, vehicle control = 1
  fold change: 0.97
Protein TB427TMP.01.3370 […] PROTEIN, PUTATIVE, vehicle control = 1
  fold change vs vehicle control: 1.11
Protein TB427TMP.01.4280 HY[…], CONSERVED, vehicle control = 1
  fold change vs vehicle control: 1.18
Protein TB427TMP.01.4650 HY[…], CONSERVED, vehicle control = 1
  fold change: 0.86
Protein TB427TMP.01.5680 HY[…], CONSERVED, vehicle control = 1
  fold change vs vehicle control: 1.44
Protein TB427TMP.01.5690 DRBD4, vehicle control = 1
  fold change vs vehicle control: 0.99
Protein TB427TMP.01.5960 MIT[…] PROTEIN, PUTATIVE, vehicle control = 1
  fold change: 0.85
Protein TB427TMP.01.6180 HY[…], CONSERVED, vehicle control = 1
  fold change: 0.75
Protein TB427TMP.01.6890 SMALL GTPASE, PUTATIVE, vehicle control = 1
  fold change vs vehicle control: 2.02
Protein TB427TMP.01.7490 HY[…], CONSERVED, vehicle control = 1
  fold change: 0.86
Protein TB427TMP.01.7530 HY[…], CONSERVED, vehicle control = 1
  fold change vs vehicle control: 1.1
Protein TB427TMP.01.8390 HY[…], CONSERVED, vehicle control = 1
  fold change: 0.84
Protein TB427TMP.01.8570 DYNEIN LIGHT IN[…] D1BLIC, PUTATIVE, vehicle control = 1
  fold change: 0.9
Protein TB427TMP.02.0030 DYNEIN HEAVY CHAIN, PUTATIVE, vehicle control = 1
  fold change: 0.83
Protein TB427TMP.02.0460 NUCLEOPORIN, vehicle control = 1
  fold change: 0.84
Protein TB427TMP.02.0760 DYNEIN HEAVY CHAIN, PUTATIVE, vehicle control = 1
  fold change: 0.55
Protein TB427TMP.02.4100 PRETRA[…], ALPHA SUBUNIT, PUTATIVE, vehicle control = 1
  fold change: 1.41
Protein TB427TMP.02.4300 HY[…], CONSERVED, vehicle control = 1
  fold change vs vehicle control: 1.07
Protein TB427TMP.02.4550 HY[…], CONSERVED, vehicle control = 1
  fold change: 0.97
Protein TB427TMP.02.5660 HY[…], CONSERVED, vehicle control = 1
  fold change: 0.76
Protein TB427TMP.02.5720 RIBONUCLEOSIDE-DIPHOSPHATE REDUCTASE LARGE CHAIN, vehicle control = 1
  fold change vs vehicle control: 0.95
Protein TB427TMP.03.0150 HY[…], CONSERVED, vehicle control = 1
  fold change: 0.88
Protein TB427TMP.160.2370 HY[…], CONSERVED, vehicle control = 1
  fold change: 0.95
Protein TB427TMP.160.4310 GLUTAMATE DEHYDROGENASE, vehicle control = 1
  fold change: 0.99
Protein TB427TMP.160.4560 ARGININE KINASE, vehicle control = 1
  fold change vs vehicle control: 2.29
Protein TB427TMP.160.4620 INOSITOL-1(OR 4)-MONOPHOSPHATASE, PUTATIVE, vehicle control = 1
  fold change vs vehicle control: 1.07
Protein TB427TMP.160.4630 HY[…], CONSERVED, vehicle control = 1
  fold change vs vehicle control: 1
Protein TB427TMP.160.4770 PROTEIN KINASE, PUTATIVE, vehicle control = 1
  fold change: 0.91
Protein TB427TMP.160.4910 FLAVOPROTEIN MONOOXYGENASE, PUTATIVE, vehicle control = 1
  fold change: 0.97
Protein TB427TMP.160.5670 HY[…], CONSERVED, vehicle control = 1
  fold change: 0.81
Protein TB427TMP.211.2730 GIM5A PROTEIN, vehicle control = 1
  fold change: 1.23
Protein TB427TMP.211.3140 HY[…], CONSERVED, vehicle control = 1
  fold change vs vehicle control: 1.57
Protein TB427TMP.211.3510 ATP-DEPENDENT DEAD/H RNA HELICASE, PUTATIVE, vehicle control = 1
  fold change vs vehicle control: 0.96
Protein TB427TMP.22.0003 PHOSPH[…], PUTATIVE, vehicle control = 1
  fold change vs vehicle control: 0.99
Protein TB427TMP.46.0001 60S ACIDIC RIBOSOMAL SUBUNIT PROTEIN, PUTATIVE, vehicle control = 1
  fold change: 0.96
Protein TB427TMP.47.0011 HY[…], CONSERVED, vehicle control = 1
  fold change: 0.89
Protein TB427TMP.55.0006 INTR[…] PROTEIN IFT88, vehicle control = 1
  fold change vs vehicle control: 1.07
Protein TB427TMP.57.0008 CALPAIN-LIKE PROTEIN, PUTATIVE, vehicle control = 1
  fold change vs vehicle control: 0.86
Protein TB427.01.120 RETRO[…] SPOT (RHS) PROTEIN, PUTATIVE, vehicle control = 1
  fold change vs vehicle control: 0.97
Protein TB427.01.2570 COATOMER BETA SUBUNIT, vehicle control = 1
  fold change: 0.97
Protein TB427.01.420 RETRO[…] SPOT (RHS) PROTEIN, PUTATIVE, vehicle control = 1
  fold change: 1.1
Protein TB427.02.3880 HET[…] RIBONUC[…]/F, PUTATIVE, vehicle control = 1
  fold change vs vehicle control: 1.3
Protein TB427.02.5800 SEDOHEPTULOSE-1,7-BISPHOSPHATASE, vehicle control = 1
  fold change vs vehicle control: 1.36
Protein TB427.02.6050 BETA PRIME COP PROTEIN, vehicle control = 1
  fold change vs vehicle control: 1.34
Protein TB427.03.1790 PYRUVATE DEHYDROGENASE E1 BETA SUBUNIT, PUTATIVE, vehicle control = 1
  fold change: 0.98
Protein TB427.03.3160 POLY(A) POLYMERASE, vehicle control = 1
  fold change vs vehicle control: 1.23
Protein TB427.03.3950 HY[…], CONSERVED, vehicle control = 1
  fold change vs vehicle control: 0.86
Protein TB427.03.4040 HY[…], CONSERVED (Ankyrinrepeat), vehicle control = 1
  fold change vs vehicle control: 3.1
Protein TB427.04.1300 HY[…], CONSERVED, vehicle control = 1
  fold change: 1.3
Protein TB427.04.1510 PHOSPHOLIPID-TRA[…], PUTATIVE, vehicle control = 1
  fold change vs vehicle control: 0.95
Protein TB427.04.1660 MIT[…] PROTEIN, PUTATIVE, vehicle control = 1
  fold change vs vehicle control: 1
Protein TB427.04.310 HY[…], CONSERVED, vehicle control = 1
  fold change: 0.93
Protein TB427.04.420 PHOSPHATIDYLINOSITOL 3-KINASE (TOR2), vehicle control = 1
  fold change: 0.74
Protein TB427.04.450 COATOMER ALPHA SUBUNIT, PUTATIVE, vehicle control = 1
  fold change: 1.1
Protein TB427.04.5010 CALRETICULIN, PUTATIVE, vehicle control = 1
  fold change: 2.06
Protein TB427.04.5200 NUCLEOPORIN (NUP54/57), PUTATIVE, vehicle control = 1
  fold change: 0.9
Protein TB427.05.1210 SHORT-CHAIN DEHYDROGENASE, PUTATIVE, vehicle control = 1
  fold change: 1.33
Protein TB427.05.1320 HY[…], CONSERVED, vehicle control = 1
  fold change vs vehicle control: 1.07
Protein TB427.05.1700 R[…] A 28 KDA SUBUNIT, PUTATIVE, vehicle control = 1
  fold change vs vehicle control: 1.31
Protein TB427.05.3260 HY[…], CONSERVED, vehicle control = 1
  fold change vs vehicle control: 0.99
Protein TB427.05.3400 CALCIUM-TRA[…]-TYPE ATPASE, vehicle control = 1
  fold change: 1.28
Protein TB427.05.4560 GUANINE DEAMINASE, PUTATIVE, vehicle control = 1
  fold change vs vehicle control: 0.95
Protein TB427.06.1500 ALKYL-DIHYDR[…] SYNTHASE, vehicle control = 1
  fold change vs vehicle control: 0.97
Protein TB427.06.3500 ENDOSOMAL T[…] RME-8, PUTATIVE, vehicle control = 1
  fold change: 0.71
